Data published in patent US12673041B2, “4-aminobut-2-enamide derivatives and salt thereof” (TAIHO PHARMACEUTICAL CO., LTD., priority 2019, dated 2026).

What was measured:
[1] = target: Gppcp-bound recombinant K-Ras4B G12C mutant protein (amino acids 1-169, C51S/C80L/C118S) (Homo sapiens, UniProt P01116, C118S/C51S/C80L/G12C); assay: KRASG12C binding assay (LC-MS compound binding rate); conditions: test compound final concentration 0.5 μM, 25° C., 1 hour
Method: As test compounds for the KRASG12C binding assay, the compounds obtained in the “Preparation of Compounds” section were used. Sample solutions each containing a test compound were prepared in the form of a 10 mM DMSO solution.
Gppcp-bound recombinant K-Ras4B G12C mutant protein (amino acids 1-169, C51S/C80L/C118S, SEQ ID NO:1) was diluted with a buffer (1×TBS, 0.1 mM TCEP, 0.25 mM MgCl2, 50 μM Gppcp) to prepare a 50 nM protein solution. K-Ras4B is the major splicing variant of K-Ras. Amino acid sequence of residues 1 to 150 including the compounds' binding region of K-Ras4B is exactly same as that of K-Ras4A, the other splicing variant (Oncotarget. 2016 Jul. 19; 7(29): 46717-46733). A sample solution containing 10 mM test compound was diluted ten-fold with DMSO to make a 1 mM sample solution, and then diluted twenty-fold with DMSO to make a 50 μM sample solution. 1 μL of a 50 μM sample solution was added to 100 μL of a 50 nM protein solution to adjust the final concentration of a test compound to be 0.5 μM in the mixture. The mixtures were stored in an incubator at 25° C. for 1 hour, and 10 μL of a 1×TBS solution containing 2% formic acid was added to stop the reaction, followed by LC-MS measurement. LC-MS measurement was performed using Xevo G2-S Q-Tof manufactured by Waters, and reverse-phase chromatography was performed with a desalting column. A mass spectrum of positive ions was obtained by electrospray. For a mass spectrum, a spectrum of polyvalent ions was collectively converted to a molecular weight by using OpenLynx software by the MaxEnt technique, and a compound binding rate was calculated from the ratio of the signal intensity of a peak that corresponds to the molecular weight of the protein to the signal intensity of a peak that corresponds to the molecular weight of the protein conjugated with the compound.
The binding assay of the test compounds was conducted at a final concentration of 0.5 μM. A binding rate of 80% or more is rated “A”, a binding rate of 60% or more and less than 80% is rated “B”, a binding rate of 40% or more and less than 60% is rated “C”, a binding rate of 20% or more and less than 40% is rated “D”, and a binding rate of less than 20% is rated “E”. N.D.=not determined. Binding rate % is the ratio of KRAS signal intensity at the molecular weight of one molecule adduct to the sum of all the KRAS signal intensity (unbound form and adducts) in mass spectrum.
Thus, binding rate 100% means that only the one molecule adduct was observed without any unbound KRAS.

[2] = target: T1, GMPPNP-bound KRAS G12C protein and cRAF RAS-binding domain (cRAF-RBD) (Homo sapiens, UniProt P01116, G12C); assay: Inhibitory activity on interaction between KRAS G12C and cRAF (Alpha technology); assay type: biochemical; conditions: GMPPNP-bound KRAS G12C incubated with compound at 25° C. for 1 hour, then cRAF-RBD, Alpha signal; read-out: IC50
T1 construct: made in house; host or cells: E. coli
Method: Interaction between recombinant K-Ras4B G12C mutant protein (amino acids 1-169, SEQ ID NO:2) and cRAF RAS-binding domain (cRAF-RBD, amino acids 50-132, Jena Biosciences GmbH) was measured using Alpha technology (PerkinElmer Inc.).
Recombinant KRAS G12C protein with an N-terminal His-tag was expressed in E. coli and purified by affinity chromatography. To prepare GTP-bound form and GDP-bound form of KRAS G12C protein, 50 μM KRAS G12C protein was incubated with 1 mM GMPPNP (Guanosine-5′-[(β,γ)-imido]triphosphate, Tetralithium salt) (Jena Bioscience GmbH) and 1 mM GDP, respectively, in a loading buffer (20 mM Tris-HCl (pH 7.5), 50 mM NaCl, 1 mM DTT and 2.5 mM EDTA) for 1 hour on ice. After the incubation, MgCl2 was added to a final concentration of 10 mM, followed by incubation at room temperature for 30 minutes. The mixture was allowed to pass through a NAP-5 column to remove free nucleotides and purified, and the resultant nucleotide-bound KRAS G12C protein was used for compound evaluation.
For the measurement of the inhibitory activity of compounds on interaction between KRAS G12C and cRAF-RBD, GMPPNP-bound KRAS G12C protein was incubated with various concentrations of compound in a reaction buffer (20 mM Tris-HCl (pH 7.5), 100 mM NaCl, 1 mM MgCl2, 1 mM TCEP, 0.1% Tween 20) at 25° C. for 1 hour. After the incubation, recombinant cRAF-RBD and Alpha detection reagents were added and incubated at room temperature for 1.5 hours for binding. Interaction 5 of KRAS G12C and cRAF-RBD was monitored by measuring Alpha signal. Inhibition % was calculated using the signal from the reaction without test compound (DMSO control) as 0% inhibition and the signal from the reaction using GDP-bound KRAS G12C in place of GMPPNP-bound KRAS G12C as 100% inhibition. IC50 values were calculated from dose titration curve using curve fitting by XLfit software (IDBS).

COCc1nc2cc(-c3cccc(NC(=O)c4ccc(NC(=O)/C=C/CN[C@H]5CC[C@H](OC)CC5)c(C#N)c4)c3)c(C(F)(F)F)cc2n1C [Example 21, 3-cyano-4-((E)-4-(((1r,4r)-4-methoxycyclohexyl)amino)but-2-enamido)-N-(3-(2-(methoxymethyl)-1-methyl-6-(trifluoromethyl)-1H-benzo[d]imidazol-5-yl)phenyl)benzamide]
binding rate [1]: A (A binding rate of 80% or more is rated “A”)
IC50 [2]: 220 nM

COCc1nc2cc(-c3cccc(NC(=O)c4ccc(NC(=O)/C=C/CNC5C[C@H]6CC[C@@H](C5)O6)c(C#N)c4)c3)c(C(F)(F)F)cc2n1C (stereo partly drawn) [Example 22, 4-((E)-4-(((1R,5S)-8-oxabicyclo[3.2.1]octan-3-yl)amino)but-2-enamido)-3-cyano-N-(3-(2-(methoxymethyl)-1-methyl-6-(trifluoromethyl)-1H-benzo[d]imidazol-5-yl)phenyl)benzamide]
binding rate [1]: A (A binding rate of 80% or more is rated “A”)
IC50 [2]: 140 nM

CO[C@H](C)c1nc2cc(-c3cccc(NC(=O)c4ccc(NC(=O)/C=C/CN[C@H]5CC[C@H](OC)CC5)c(C#N)c4)c3)c(C(F)(F)F)cc2n1C [Example 23, 3-cyano-4-((E)-4-(((1r,4r)-4-methoxycyclohexyl)amino)but-2-enamido)-N-(3-(2-((R)-1-methoxyethyl)-1-methyl-6-(trifluoromethyl)-1H-benzo[d]imidazol-5-yl)phenyl)benzamide]
binding rate [1]: A (A binding rate of 80% or more is rated “A”)
IC50 [2]: 220 nM

COCc1nc2cc(-c3cccc(NC(=O)c4ccc(NC(=O)/C=C/CNC5(C)CCC6(CC5)OCCO6)c(C#N)c4)c3)c(C(F)(F)F)cc2n1C [Example 24, (E)-3-cyano-N-(3-(2-(methoxymethyl)-1-methyl-6-(trifluoromethyl)-1H-benzo[d]imidazol-5-yl)phenyl)-4-(4-((8-methyl-1,4-dioxaspiro[4.5]decan-8-yl)amino)but-2-enamido)benzamide]
binding rate [1]: A (A binding rate of 80% or more is rated “A”)
IC50 [2]: 150 nM

COCc1nc2cc(-c3cccc(NC(=O)c4ccc(NC(=O)/C=C/CNC5CC6C(C5)C6(F)F)c(C#N)c4)c3)c(C(F)(F)F)cc2n1C (stereo not shown) [Example 25, (E)-3-cyano-4-(4-((6,6-difluorobicyclo[3.1.0]hexan-3-yl)amino)but-2-enamido)-N-(3-(2-(methoxymethyl)-1-methyl-6-(trifluoromethyl)-1H-benzo[d]imidazol-5-yl)phenyl)benzamide]
binding rate [1]: A (A binding rate of 80% or more is rated “A”)
IC50 [2]: 250 nM

COCc1nc2cc(-c3cccc(NC(=O)c4ccc(NC(=O)/C=C/CNC5CCC5)c(C#N)c4)c3)c(C(F)(F)F)cc2n1C [Example 26, (E)-3-cyano-4-(4-(cyclobutylamino)but-2-enamido)-N-(3-(2-(methoxymethyl)-1-methyl-6-(trifluoromethyl)-1H-benzo[d]imidazol-5-yl)phenyl)benzamide]
binding rate [1]: C (a binding rate of 40% or more and less than 60% is rated “C”)
IC50 [2]: 420 nM

COCc1nc2cc(-c3cccc(NC(=O)c4ccc(NC(=O)/C=C/CNC5CCCCC5)c(C#N)c4)c3)c(C(F)(F)F)cc2n1C [Example 27, (E)-3-cyano-4-(4-(cyclohexylamino)but-2-enamido)-N-(3-(2-(methoxymethyl)-1-methyl-6-(trifluoromethyl)-1H-benzo[d]imidazol-5-yl)phenyl)benzamide]
binding rate [1]: B (a binding rate of 60% or more and less than 80% is rated “B”)
IC50 [2]: 350 nM

CO[C@H]1C[C@H](NC/C=C/C(=O)Nc2ccc(C(=O)Nc3cccc(-c4cc5nc6n(c5cc4C(F)(F)F)CCC6)c3)cc2C#N)C1 [Example 28, 3-cyano-4-((E)-4-(((1r,3r)-3-methoxycyclobutyl)amino)but-2-enamido)-N-(3-(7-(trifluoromethyl)-2,3-dihydro-1H-benzo[d]pyrrolo[1,2-a]imidazol-6-yl)phenyl)benzamide]
binding rate [1]: A (A binding rate of 80% or more is rated “A”)
IC50 [2]: 100 nM

CO[C@H]1CC[C@H](NC/C=C/C(=O)Nc2ccc(C(=O)c3ccc4c(-c5cc6ncn(C)c6cc5C(F)(F)F)cccn34)cc2)CC1 [Example 39, (E)-4-(((1r,4r)-4-methoxycyclohexyl)amino)-N-(4-(8-(1-methyl-6-(trifluoromethyl)-1H-benzo[d]imidazol-5-yl)indolizine-3-carbonyl)phenyl)but-2-enamide]
binding rate [1]: A (A binding rate of 80% or more is rated “A”)
IC50 [2]: 300 nM

COc1ccccc1-c1cccn2c(C(=O)c3ccc(NC(=O)/C=C/CN[C@H]4CC[C@H](OC)CC4)c(C#N)c3)ccc12 [Example 40, (E)-N-(2-cyano-4-(8-(2-methoxyphenyl)indolizine-3-carbonyl)phenyl)-4-(((1r,4r)-4-methoxycyclohexyl)amino)but-2-enamide]
binding rate [1]: B (a binding rate of 60% or more and less than 80% is rated “B”)
IC50 [2]: 200 nM

Cn1cnc2cc(-c3cccn4c(C(=O)c5ccc(NC(=O)/C=C/[C@H]6CCCN6)c(C#N)c5)ccc34)c(C(F)(F)F)cc21 [Example 42, (R,E)-N-(2-cyano-4-(8-(1-methyl-6-(trifluoromethyl)-1H-benzo[d]imidazol-5-yl)indolizine-3-carbonyl)phenyl)-3-(pyrrolidin-2-yl)acrylamide]
binding rate [1]: D (a binding rate of 20% or more and less than 40% is rated “D”)
IC50 [2]: 360 nM

COc1cccc(F)c1-c1cccn2c(C(=O)c3ccc(NC(=O)/C=C/CN[C@H]4CC[C@H](OC)CC4)c(C#N)c3)ccc12 [Example 43, (E)-N-(2-cyano-4-(8-(2-fluoro-6-methoxyphenyl)indolizine-3-carbonyl)phenyl)-4-(((1r,4r)-4-methoxycyclohexyl)amino)but-2-enamide]
binding rate [1]: A (A binding rate of 80% or more is rated “A”)
IC50 [2]: 170 nM

CO[C@H]1CC[C@H](NC/C=C/C(=O)Nc2ccc(C(=O)c3ccc4c(-c5ccccc5Cl)cccn34)cc2C#N)CC1 [Example 45, (E)-N-(4-(8-(2-chlorophenyl)indolizine-3-carbonyl)-2-cyanophenyl)-4-(((1r,4r)-4-methoxycyclohexyl)amino)but-2-enamide]
binding rate [1]: B (a binding rate of 60% or more and less than 80% is rated “B”)
IC50 [2]: 320 nM

CO[C@H]1CC[C@H](NC/C=C/C(=O)Nc2ccc(C(=O)c3ccc4c(-c5c(O)cccc5F)cccn34)cc2C#N)CC1 [Example 46, (E)-N-(2-cyano-4-(8-(2-fluoro-6-hydroxyphenyl)indolizine-3-carbonyl)phenyl)-4-(((1r,4r)-4-methoxycyclohexyl)amino)but-2-enamide]
binding rate [1]: A (A binding rate of 80% or more is rated “A”)
IC50 [2]: 170 nM
